Laboratory results reported in PubChem BioAssay AID602341 (The Scripps Research Institute Molecular Screening Center, 2012).
Active and inactive are the calls of the source. How the calls were made is not given here.

Experiments:
Experiment in all cases: serine hydrolase selectivity, ABHD6 analysis, late-stage follow-up, selectivity assay for DAGLb inhibitor project, ABPP-SILAC, LC-MS, mouse cells (AID 602341)
[1] = tested on: Ctsa; conditions: serine hydrolases, active compounds read low
[2] = tested on: Lonp1; conditions: serine hydrolases, active compounds read low
[3] = tested on: Serhl; conditions: serine hydrolases, active compounds read low
[4] = tested on: Apeh; conditions: serine hydrolases, active compounds read low
[5] = tested on: Iah1; conditions: serine hydrolases, active compounds read low
[6] = tested on: Ppt2; conditions: serine hydrolases, active compounds read low
[7] = tested on: Abhd11; conditions: serine hydrolases, active compounds read low
[8] = target: Palmitoyl-protein thioesterase ABHD10, mitochondrial (Mus musculus) (UniProt Q6PE15); conditions: serine hydrolases, active compounds read low
[9] = tested on: Lypla2; conditions: serine hydrolases, active compounds read low
[10] = tested on: Pnpla6; conditions: serine hydrolases, active compounds read low
[11] = tested on: Pafah1b2; conditions: serine hydrolases, active compounds read low
[12] = tested on: Parl; conditions: serine hydrolases, active compounds read low
[13] = target: Monoacylglycerol lipase ABHD6 (Mus musculus) (UniProt Q8R2Y0); conditions: serine hydrolases, active compounds read low
[14] = tested on: Esd; conditions: serine hydrolases, active compounds read low
[15] = tested on: Abhd12; conditions: serine hydrolases, active compounds read low
[16] = tested on: Fasn; conditions: serine hydrolases, active compounds read low
[17] = tested on: Lyplal1; conditions: serine hydrolases, active compounds read low
[18] = tested on: Pnpla7; conditions: serine hydrolases, active compounds read low
[19] = tested on: Lipe; conditions: serine hydrolases, active compounds read low
[20] = tested on: Acot2; conditions: serine hydrolases, active compounds read low
[21] = tested on: Ache; conditions: serine hydrolases, active compounds read low
[22] = tested on: Htra2; conditions: serine hydrolases, active compounds read low
[23] = target: Diacylglycerol lipase-beta (Mus musculus) (UniProt Q91WC9); conditions: serine hydrolases, Daglb, active compounds read low
[24] = tested on: Fam108b; conditions: serine hydrolases, active compounds read low
[25] = tested on: Pnpla8; conditions: serine hydrolases, active compounds read low
[26] = tested on: Bat5; conditions: serine hydrolases, active compounds read low
[27] = tested on: D230012E17Rik; conditions: serine hydrolases, active compounds read low
[28] = tested on: Kiaa1363; conditions: serine hydrolases, active compounds read low
[29] = target: Prolyl endopeptidase (Mus musculus) (UniProt Q9QUR6); conditions: serine hydrolases, Prep, active compounds read low
[30] = tested on: Pme1; conditions: serine hydrolases, active compounds read low
[31] = tested on: Rbbp9; conditions: serine hydrolases, active compounds read low
[32] = tested on: Qrsl1; conditions: serine hydrolases, active compounds read low
[33] = tested on: Dpp9; conditions: serine hydrolases, active compounds read low
[34] = tested on: Fam108c; conditions: serine hydrolases, active compounds read low
[35] = tested on: Prepl; conditions: serine hydrolases, active compounds read low
[36] = target: Acyl-protein thioesterase 1 (Mus musculus) (UniProt P97823); conditions: serine hydrolases, Lypla1, active compounds read low
[37] = tested on: Pla2g6; conditions: serine hydrolases, active compounds read low
[38] = tested on: Tpp2; conditions: serine hydrolases, active compounds read low
[39] = tested on: Lactb; conditions: serine hydrolases, active compounds read low
[40] = target: Platelet-activating factor acetylhydrolase 2, cytoplasmic (Mus musculus) (UniProt Q8VDG7); conditions: serine hydrolases, Pafah2, active compounds read low
[41] = tested on: Lypla3; conditions: serine hydrolases, active compounds read low
[42] = tested on: Dpp7; conditions: serine hydrolases, active compounds read low
[43] = tested on: Prcp; conditions: serine hydrolases, active compounds read low
[44] = tested on: Fam108a; conditions: serine hydrolases, active compounds read low
[45] = tested on: Dpp8; conditions: serine hydrolases, active compounds read low
[46] = tested on: Faah; conditions: serine hydrolases, active compounds read low
[47] = tested on: Pafah1b3; conditions: serine hydrolases, active compounds read low

Platelet-activating factor acetylhydrolase 2, cytoplasmic (Mus musculus), sequence (Q8VDG7 whole entry, looked up): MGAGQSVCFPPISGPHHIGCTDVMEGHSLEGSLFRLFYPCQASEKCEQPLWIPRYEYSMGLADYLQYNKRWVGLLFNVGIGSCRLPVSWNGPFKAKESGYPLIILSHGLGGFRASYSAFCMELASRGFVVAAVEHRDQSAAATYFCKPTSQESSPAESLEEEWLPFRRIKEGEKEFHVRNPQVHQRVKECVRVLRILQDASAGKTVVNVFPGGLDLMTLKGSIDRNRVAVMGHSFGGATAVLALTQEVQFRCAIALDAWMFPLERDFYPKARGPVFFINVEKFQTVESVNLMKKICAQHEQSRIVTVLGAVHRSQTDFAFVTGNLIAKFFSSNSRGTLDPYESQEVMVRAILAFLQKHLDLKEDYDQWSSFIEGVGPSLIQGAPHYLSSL
Palmitoyl-protein thioesterase ABHD10, mitochondrial (Mus musculus), sequence (Q6PE15 whole entry, looked up): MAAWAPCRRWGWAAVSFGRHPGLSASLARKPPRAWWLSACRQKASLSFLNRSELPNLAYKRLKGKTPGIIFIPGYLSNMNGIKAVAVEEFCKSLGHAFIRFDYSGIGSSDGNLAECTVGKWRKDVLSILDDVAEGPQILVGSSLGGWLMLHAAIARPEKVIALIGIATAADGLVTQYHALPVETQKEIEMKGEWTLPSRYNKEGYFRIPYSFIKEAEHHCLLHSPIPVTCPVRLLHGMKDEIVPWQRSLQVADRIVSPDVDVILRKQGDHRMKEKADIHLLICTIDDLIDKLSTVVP
Prolyl endopeptidase (Mus musculus), sequence (Q9QUR6 whole entry, looked up): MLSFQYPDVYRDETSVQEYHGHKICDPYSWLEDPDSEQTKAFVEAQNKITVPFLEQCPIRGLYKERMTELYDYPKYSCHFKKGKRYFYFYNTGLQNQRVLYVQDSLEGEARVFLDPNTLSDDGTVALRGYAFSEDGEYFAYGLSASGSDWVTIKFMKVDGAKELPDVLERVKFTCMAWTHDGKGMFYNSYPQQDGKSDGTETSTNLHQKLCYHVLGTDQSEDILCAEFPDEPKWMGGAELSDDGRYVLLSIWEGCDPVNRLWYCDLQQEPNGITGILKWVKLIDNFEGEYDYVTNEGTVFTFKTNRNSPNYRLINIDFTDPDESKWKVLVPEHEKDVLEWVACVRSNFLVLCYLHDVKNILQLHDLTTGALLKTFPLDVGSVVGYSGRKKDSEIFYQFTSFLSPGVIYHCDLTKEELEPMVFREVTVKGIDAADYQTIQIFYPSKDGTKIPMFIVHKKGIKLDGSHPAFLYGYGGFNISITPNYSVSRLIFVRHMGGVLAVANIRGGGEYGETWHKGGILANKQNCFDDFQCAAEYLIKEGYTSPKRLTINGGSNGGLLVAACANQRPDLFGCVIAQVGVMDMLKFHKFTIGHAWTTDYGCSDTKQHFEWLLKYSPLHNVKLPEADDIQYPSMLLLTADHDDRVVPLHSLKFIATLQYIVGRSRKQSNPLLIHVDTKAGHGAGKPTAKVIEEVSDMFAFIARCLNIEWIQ
Diacylglycerol lipase-beta (Mus musculus), sequence (Q91WC9 whole entry, looked up): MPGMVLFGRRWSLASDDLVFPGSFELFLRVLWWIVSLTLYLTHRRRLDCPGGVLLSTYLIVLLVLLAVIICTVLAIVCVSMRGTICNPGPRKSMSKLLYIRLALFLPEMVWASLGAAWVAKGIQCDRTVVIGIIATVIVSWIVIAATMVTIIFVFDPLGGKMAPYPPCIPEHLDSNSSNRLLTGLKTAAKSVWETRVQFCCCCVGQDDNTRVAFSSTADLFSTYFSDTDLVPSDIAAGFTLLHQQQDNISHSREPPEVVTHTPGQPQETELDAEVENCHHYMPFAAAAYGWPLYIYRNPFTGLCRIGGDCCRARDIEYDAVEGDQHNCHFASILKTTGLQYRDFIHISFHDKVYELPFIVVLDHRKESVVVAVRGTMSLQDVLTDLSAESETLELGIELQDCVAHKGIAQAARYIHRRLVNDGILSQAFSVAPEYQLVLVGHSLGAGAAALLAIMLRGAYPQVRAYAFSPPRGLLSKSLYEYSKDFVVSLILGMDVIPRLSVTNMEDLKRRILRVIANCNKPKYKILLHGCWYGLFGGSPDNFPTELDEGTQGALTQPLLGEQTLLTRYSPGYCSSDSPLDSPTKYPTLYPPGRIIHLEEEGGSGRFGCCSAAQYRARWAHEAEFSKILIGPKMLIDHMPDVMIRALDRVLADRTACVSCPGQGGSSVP
Monoacylglycerol lipase ABHD6 (Mus musculus), sequence (Q8R2Y0 whole entry, looked up): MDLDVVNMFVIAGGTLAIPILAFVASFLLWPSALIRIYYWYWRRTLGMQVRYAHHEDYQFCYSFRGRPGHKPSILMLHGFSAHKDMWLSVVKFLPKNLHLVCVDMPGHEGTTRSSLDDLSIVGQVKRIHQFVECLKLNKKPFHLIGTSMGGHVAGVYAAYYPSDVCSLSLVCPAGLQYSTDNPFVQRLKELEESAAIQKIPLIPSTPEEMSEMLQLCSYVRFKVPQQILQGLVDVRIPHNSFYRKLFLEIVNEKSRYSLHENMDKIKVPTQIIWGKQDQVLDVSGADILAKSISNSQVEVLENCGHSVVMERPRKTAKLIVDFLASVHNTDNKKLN
Acyl-protein thioesterase 1 (Mus musculus), sequence (P97823 whole entry, looked up): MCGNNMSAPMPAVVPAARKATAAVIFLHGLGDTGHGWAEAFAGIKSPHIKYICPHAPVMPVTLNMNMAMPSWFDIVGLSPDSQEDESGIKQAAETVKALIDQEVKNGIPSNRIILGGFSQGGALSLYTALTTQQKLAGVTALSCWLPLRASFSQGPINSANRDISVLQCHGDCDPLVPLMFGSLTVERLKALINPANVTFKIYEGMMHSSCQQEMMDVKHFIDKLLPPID

SMILES: COc1ccc(-c2ccc(-c3cn(C(=O)N4CCCCC4c4ccccc4)nn3)cc2)cc1 (configuration not stated)
- SILAC ratio (inhibitor/DMSO) [1]: 1.46 (inactive)
- SILAC ratio (inhibitor/DMSO) [2]: 1.73 (inactive)
- SILAC ratio (inhibitor/DMSO) [3]: 1.2 (inactive)
- SILAC ratio (inhibitor/DMSO) [4]: 1.13 (inactive)
- SILAC ratio (inhibitor/DMSO) [5]: 1.15 (inactive)
- SILAC ratio (inhibitor/DMSO) [6]: 1.17 (inactive)
- SILAC ratio (inhibitor/DMSO) [7]: 1.5 (inactive)
- SILAC ratio (inhibitor/DMSO) [8]: 1.17 (inactive)
- SILAC ratio (inhibitor/DMSO) [9]: 1.13 (inactive)
- SILAC ratio (inhibitor/DMSO) [10]: 1.4 (inactive)
- SILAC ratio (inhibitor/DMSO) [11]: 1.19 (inactive)
- SILAC ratio (inhibitor/DMSO) [12]: 1.4 (inactive)
- SILAC ratio (inhibitor/DMSO) [13]: 0.05
- SILAC ratio (inhibitor/DMSO) [14]: 1.34 (inactive)
- SILAC ratio (inhibitor/DMSO) [15]: 1.3 (inactive)
- SILAC ratio (inhibitor/DMSO) [16]: 1.19 (inactive)
- SILAC ratio (inhibitor/DMSO) [17]: 1.61 (inactive)
- SILAC ratio (inhibitor/DMSO) [18]: 1.65 (inactive)
- SILAC ratio (inhibitor/DMSO) [19]: 1.21 (inactive)
- SILAC ratio (inhibitor/DMSO) [20]: 1.47 (inactive)
- SILAC ratio (inhibitor/DMSO) [21]: 1.23 (inactive)
- SILAC ratio (inhibitor/DMSO) [22]: 1.29 (inactive)
- SILAC ratio (inhibitor/DMSO) [23]: 1.05 (inactive)
- SILAC ratio (inhibitor/DMSO) [24]: 1.15 (inactive)
- SILAC ratio (inhibitor/DMSO) [25]: 1.33 (inactive)
- SILAC ratio (inhibitor/DMSO) [26]: 1.27 (inactive)
- SILAC ratio (inhibitor/DMSO) [27]: 1.13 (inactive)
- SILAC ratio (inhibitor/DMSO) [28]: 1.39 (inactive)
- SILAC ratio (inhibitor/DMSO) [29]: 1.07 (inactive)
- SILAC ratio (inhibitor/DMSO) [30]: 1.29 (inactive)
- SILAC ratio (inhibitor/DMSO) [31]: 1.4 (inactive)
- SILAC ratio (inhibitor/DMSO) [32]: 1.47 (inactive)
- SILAC ratio (inhibitor/DMSO) [33]: 1.06 (inactive)
- SILAC ratio (inhibitor/DMSO) [34]: 1.13 (inactive)
- SILAC ratio (inhibitor/DMSO) [35]: 1 (inactive)
- SILAC ratio (inhibitor/DMSO) [36]: 1.05 (inactive)
- SILAC ratio (inhibitor/DMSO) [37]: 1.47 (inactive)
- SILAC ratio (inhibitor/DMSO) [38]: 1.43 (inactive)
- SILAC ratio (inhibitor/DMSO) [39]: 1.05 (inactive)
- SILAC ratio (inhibitor/DMSO) [40]: 1.1 (inactive)
- SILAC ratio (inhibitor/DMSO) [41]: 1.1 (inactive)
- SILAC ratio (inhibitor/DMSO) [42]: 1.29 (inactive)
- SILAC ratio (inhibitor/DMSO) [43]: 0.86 (inactive)
- SILAC ratio (inhibitor/DMSO) [44]: 1.33 (inactive)
- SILAC ratio (inhibitor/DMSO) [45]: 1.17 (inactive)
- SILAC ratio (inhibitor/DMSO) [46]: 0.95 (inactive)
- SILAC ratio (inhibitor/DMSO) [47]: 1.15 (inactive)
